From patent US20230346810A1, “ENDOGENOUS STABILIZATION OF CANNABINOIDS” (Abstrax Tech Inc., priority 2022, published 2023) come the findings set out here.

Data set [1] is described as follows: UV-Visible spectroscopy of color purity of THC oils. In kind it is physicochemical. The settings on record: 5% by weight CBDA added, versus sample without CBDA; FIG. 8. As for the experimental part: The color purities of THC oils with and without acidic cannabinoids were measured using a LabTech BlueStar A UV-Vis Spectrophotometer. The data collection range was from 250 nm to 1100 nm at a scan rate of 3 nm per second. About 1 g of sample was added to scintillation vial followed by addition of 5 mL of ethanol. The solution was agitated for 2 min in order to fully dissolve the oil and transferred to a UV-Vis quartz cuvette. An ethanol background was collected prior to running the samples to reduce solvent.

Data set [2] is described as follows: Color change / oxidation of cannabinoid oils on exposure to air (visual). It is filed as physicochemical. As to conditions: about 5% CBDA by weight added, homogenized under mild heat (about 70° C.).

Turning to `CCCCCc1cc(O)c2c(c1)OC(C)(C)[C@@H]1CC=C(C)C[C@@H]21` [Sample D8-THC, Δ8-tetrahydrocannabinol], the “visible absorption after CBDA addition (UV-Visible spectra)” value in data set [1] is “less visible absorption”.

Consider `CCCCCc1cc(O)c2c(c1)OC(C)(C)[C@@H]1CCC(C)=C[C@@H]21` [Sample D9-THC, Δ^9-tetrahydrocannabinol], for which, in data set [2], the “color of solution after CBDA addition” value was “yellow solution with minimal discoloration”.
